Data taken from patent US6403112B2, “Ectoin and ectoin derivatives as moisturizers in cosmetics” (Merck Patent Gesellschaft mit beschrankter, priority 1993, dated 2002).

assay: Water absorption capacity at 65% relative atmospheric humidity; assay type: physicochemical; settings: relative atmospheric humidity of 65%; 1 g of anhydrous substance kept in sealed chamber until weight is constant
Description: A) Water absorption capacity The water absorption capacity of the compound of Example 1 is determined at a relative atmospheric humidity of 65%. The control substances used are in each case glycerol and propylene glycol. In each case 1 g of the anhydrous substance is kept in a sealed chamber until the weight is constant. The water absorption capacity is calculated as follows: [formula] Ectoin has a water absorption of 25% and, in comparison with glycerol or propylene glycol (60 and 45%, respectively) a less pronounced hygroscopic behavior. However, with regard to its use as a moisturizer, the dehydrating effect known from unduly high glycerol concentrations can be ruled out.

Row | water absorption [%] | SMILES
1 | 45 | CC(O)CO (stereo not drawn) [propylene glycol]
2 | 60 | OCC(O)CO [glycerol]
3 | 25 | CC1=N[C@H](C(=O)O)CCN1 [Ectoin, (S)-1,4,5,6-tetrahydro-2-methyl-4-pyrimidinecarboxylic acid]
